Assays:
Adenosine receptor A3 = biological target: T1, Adenosine receptor A3 (Homo sapiens, UniProt P0DMS8); test: Displacement of [3H]HEMADO from human adenosine A3 receptor expressed in CHO cells after 3 hrs by scintillation counting method; assay type: cell-based
T1 sequence (P0DMS8 whole entry): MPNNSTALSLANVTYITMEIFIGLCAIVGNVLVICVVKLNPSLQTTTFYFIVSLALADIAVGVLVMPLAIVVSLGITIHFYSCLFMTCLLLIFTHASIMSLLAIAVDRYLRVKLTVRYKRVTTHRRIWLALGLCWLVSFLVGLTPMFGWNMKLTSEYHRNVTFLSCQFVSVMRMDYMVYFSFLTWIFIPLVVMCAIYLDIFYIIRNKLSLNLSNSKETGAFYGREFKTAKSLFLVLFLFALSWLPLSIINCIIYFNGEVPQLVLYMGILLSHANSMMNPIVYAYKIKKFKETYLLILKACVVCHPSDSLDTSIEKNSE

Adenosine receptor A2a [1] = biological target: T2, Adenosine receptor A2a (Homo sapiens, UniProt P29274); test: Displacement of [3H]NECA from human adenosine A2A receptor expressed in CHO cells after 3 hrs by scintillation counting method; assay type: cell-based
T2 sequence (P29274 whole entry): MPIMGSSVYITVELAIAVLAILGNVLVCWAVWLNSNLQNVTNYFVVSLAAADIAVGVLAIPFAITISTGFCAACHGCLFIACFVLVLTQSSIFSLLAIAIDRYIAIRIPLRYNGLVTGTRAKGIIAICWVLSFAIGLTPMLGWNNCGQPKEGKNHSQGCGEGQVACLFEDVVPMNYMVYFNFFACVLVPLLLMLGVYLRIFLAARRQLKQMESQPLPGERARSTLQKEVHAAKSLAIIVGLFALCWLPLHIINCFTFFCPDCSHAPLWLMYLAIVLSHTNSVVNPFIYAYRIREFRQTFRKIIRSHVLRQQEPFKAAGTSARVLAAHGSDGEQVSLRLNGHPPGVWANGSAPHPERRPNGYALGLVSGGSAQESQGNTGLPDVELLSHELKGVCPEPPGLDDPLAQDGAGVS

Adenosine receptor A1 = biological target: T3, Adenosine receptor A1 (Homo sapiens, UniProt P30542); test: Displacement of [3H]CCPA from human adenosine A1 receptor expressed in CHO cells after 3 hrs by scintillation counting method; assay type: cell-based
T3 sequence (P30542 whole entry): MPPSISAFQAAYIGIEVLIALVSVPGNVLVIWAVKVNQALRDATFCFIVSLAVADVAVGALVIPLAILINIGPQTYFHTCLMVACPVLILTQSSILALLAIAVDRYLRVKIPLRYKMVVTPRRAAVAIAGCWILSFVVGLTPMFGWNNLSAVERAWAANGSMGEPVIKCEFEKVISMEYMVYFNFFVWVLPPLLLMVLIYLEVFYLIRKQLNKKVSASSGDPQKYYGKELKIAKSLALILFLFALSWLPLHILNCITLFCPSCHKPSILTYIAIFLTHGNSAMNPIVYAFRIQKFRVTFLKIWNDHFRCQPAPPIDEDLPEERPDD

Adenosine receptor A2a [2] = biological target: T2, Adenosine receptor A2a; test: Antagonist activity at human adenosine A2A receptor expressed in CHO cells assessed as inhibition of NECA-induced increase in cAMP accumulation preincubated for 10 mins followed by NECA addition by GloSensor cAMP assay; assay type: functional, cell-based
Homo sapiens [3] = species: Homo sapiens; test: Selectivity ratio of Ki for displacement of [3H]HEMADO from human adenosine A3 receptor expressed in CHO cells to Ki for displacement of [3H]NECA from human adenosine A2A receptor expressed in CHO cells; assay type: cell-based
Adenosine receptor A2b = biological target: T4, Adenosine receptor A2b (Homo sapiens, UniProt P29275); test: Antagonist activity at human adenosine A2B receptor expressed in CHO cells assessed as inhibition of NECA-induced increase in cAMP accumulation preincubated for 10 mins followed by NECA addition by GloSensor cAMP assay; assay type: functional, cell-based
T4 sequence (P29275 whole entry): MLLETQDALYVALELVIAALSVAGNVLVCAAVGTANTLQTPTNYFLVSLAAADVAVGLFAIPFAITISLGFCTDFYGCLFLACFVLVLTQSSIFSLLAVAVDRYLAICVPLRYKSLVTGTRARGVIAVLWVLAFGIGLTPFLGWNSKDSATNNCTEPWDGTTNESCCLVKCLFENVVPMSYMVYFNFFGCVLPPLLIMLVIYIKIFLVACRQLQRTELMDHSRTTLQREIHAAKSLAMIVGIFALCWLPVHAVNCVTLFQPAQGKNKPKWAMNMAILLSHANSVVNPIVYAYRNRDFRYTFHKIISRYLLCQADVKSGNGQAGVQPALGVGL

Homo sapiens [4] = species: Homo sapiens; test: Selectivity ratio of Ki for displacement of [3H]CCPA from human adenosine A1 receptor expressed in CHO cells to Ki for displacement of [3H]NECA from human adenosine A2A receptor expressed in CHO cells; assay type: cell-based
Homo sapiens [5] = species: Homo sapiens; test: Selectivity ratio of Ki for [3H]NECA from human adenosine A2A receptor expressed in CHO cells to Ki for displacement of [3H]HEMADO from human adenosine A3 receptor expressed in CHO cells; assay type: cell-based
[6] = biological target: Adenosine receptors; A1 & A3 (Homo sapiens) (UniProt P30542+P0DMS8); test: Selectivity ratio of Ki for displacement of [3H]CCPA from human adenosine A1 receptor expressed in CHO cells to Ki for displacement of [3H]HEMADO from human adenosine A3 receptor expressed in CHO cells; assay type: cell-based

Row | Compound | Ki (Adenosine receptor A3) [nM] | Ki (Adenosine receptor A2a [1]) [nM] | Ki (Adenosine receptor A1) [nM] | IC50 (Adenosine receptor A2a [2]) [nM] | Ratio Ki (Homo sapiens [3]) | IC50 (Adenosine receptor A2b) [nM] | Ratio Ki (Homo sapiens [4]) | Ratio Ki (Homo sapiens [5]) | Ratio Ki [6]
1 | Nc1nc(-c2ccco2)nc2sc(-c3ccccc3)nc12 | 2.8 | 1.7 | 67 | 163 | 1.6 | > 30000 | 39.4 |  | 
2 | Nc1nc(-c2ccco2)nc2sc(-c3ccco3)nc12 | 99 | 3.4 | 69 | 301 | 29.1 | > 30000 | 20.3 |  | 
3 | O=C(Nc1nc(-c2ccccc2)nc2sc(-c3ccco3)nc12)c1ccccc1 | 32 | 1140 | > 30000 |  |  | > 30000 |  | 35.7 | > 900
4 | Nc1nc(-c2cccc(O)c2)nc2sc(-c3ccccc3)nc12 | 190 | 5 | 58.5 | 627 | 38 | > 30000 | 11.7 |  | 
5 | Nc1nc(-c2ccccc2)nc2sc(-c3ccco3)nc12 | 15 | 3 | 33 |  | 5 | > 30000 | 11 | 0.2 | 2.2
6 | Cc1ccc(-c2nc(N)c3nc(-c4ccccc4)sc3n2)o1 | 24.9 | 22.4 | 28.9 |  | 1.1 | > 30000 | 1.3 |  | 
7 | Nc1nc(-c2ccc(CO)cc2)nc2sc(-c3ccco3)nc12 | 3.58 | 7.7 | 77.7 |  | 0.5 | > 30000 | 10.1 |  | 
8 | COc1ccc(-c2nc(N)c3nc(-c4ccco4)sc3n2)cc1 | 4.66 | 11.2 | 47.7 |  | 0.4 | > 30000 | 4.2 |  | 
9 | O=C(Nc1nc(-c2ccccc2)nc2sc(-c3ccccc3)nc12)c1ccco1 | 48 | 3980 | 2280 |  |  | > 30000 |  | 83 | 47.4
10 | O=C(Nc1nc(-c2ccccc2)nc2sc(-c3ccccc3)nc12)c1ccccc1 | 1200 | 104 | 1470 |  |  | > 30000 |  | 0.08 | 1.2
11 | Nc1nc(-c2ccc(CO)cc2)nc2sc(-c3ccccc3)nc12 | 8.2 | 82 | 82 |  | 0.1 | > 30000 | 1 |  | 
12 | Cc1nc(NC(=O)c2ccccc2)c2nc(-c3ccccc3)sc2n1 | 691 | 1950 | 935 |  |  | > 30000 |  | 2.8 | 1.3
13 | N#Cc1cccc(-c2nc(N)c3nc(-c4ccccc4)sc3n2)c1 | 247 | 33.6 | 594 |  | 7.3 | > 30000 | 17.7 |  | 
14 | Nc1nc(-c2cccc(O)c2)nc2sc(-c3ccco3)nc12 | 15.7 | 1.64 | 51 | 764 | 9.6 | > 30000 | 31.1 |  | 
15 | Nc1nc(-c2cccc(CO)c2)nc2sc(-c3ccco3)nc12 | 0.9 | 2.1 | 28 |  | 0.4 | > 30000 | 13 |  | 
16 | Cc1nc(NC(=O)c2ccc(Cl)cc2)c2nc(-c3ccccc3)sc2n1 | > 30000 | > 30000 | > 30000 |  |  | > 30000 |  |  | 
17 | Cc1ccc(-c2nc(N)c3nc(-c4ccco4)sc3n2)o1 | 13.8 | 2.36 | 45.9 |  | 5.8 | > 30000 | 19.4 |  | 
18 | Cc1nc(N)c2nc(-c3ccccc3)sc2n1 | 2660 | 248 | 34 |  | 10.7 | > 30000 | 0.14 | 0.09 | 0.01
19 | Nc1nc(-c2ccccc2)nc2sc(-c3ccccc3)nc12 | 84 | 19 | 148 |  | 4.4 | > 30000 | 7.8 | 0.22 | 1.76
20 | COc1ccc(C(=O)Nc2nc(C)nc3sc(-c4ccccc4)nc23)cc1 | 91 | > 30000 | 1460 |  |  | > 30000 |  | > 300 | 16
21 | N#Cc1cccc(-c2nc(N)c3nc(-c4ccco4)sc3n2)c1 | 61.5 | 7.7 | 103 |  | 8 | > 30000 | 13.3 |  | 
22 | Nc1nc(-c2cccc(CO)c2)nc2sc(-c3ccccc3)nc12 | 3.7 | 53 | 32 |  | 0.07 | > 30000 | 0.6 |  | 
23 | O=C(Nc1nc(-c2ccccc2)nc2sc(-c3ccco3)nc12)c1ccco1 | 4 | 428 | 265 |  |  | > 30000 |  | 107 | 66.2
24 | COc1cccc(-c2nc(N)c3nc(-c4ccccc4)sc3n2)c1 | 35.6 | 110 | 176 |  | 0.3 | > 30000 | 1.6 |  | 
25 | COc1ccc(-c2nc(N)c3nc(-c4ccccc4)sc3n2)cc1 | 46.7 | 115 | 225 |  | 0.4 | > 30000 | 1.9 |  | 
26 | COc1cccc(-c2nc(N)c3nc(-c4ccco4)sc3n2)c1 | 4.9 | 1.9 | 62.3 |  | 2.6 | > 30000 | 32.8 |  | 

From ChEMBL document CHEMBL4330140, “Novel human adenosine receptor antagonists based on the 7-amino-thiazolo[5,4-d]pyrimidine scaffold. Structural investigations at the 2-, 5- and 7-positions to enhance affinity and tune selectivity” (Bioorg Med Chem Lett, 2019)
